Results taken from patent US4272437A, “Antibacterial agents, and 4-thio azetidinone intermediates” (priority 1979, dated 1981).
In brackets after ≈: the same amount, converted by molar mass.

Columns and labels:
[1] = stability of isolated product (light, handling); assay type: physicochemical
[2] = in vitro and in vivo, literature; cited from earlier work
β-lactamases = conditions: literature; cited from earlier work
[3] = test system: Gram-negative and Gram-positive organisms; conditions: literature; cited from earlier work
Ent. cloacae A-9656 = test: MIC, tube dilution, Enterobacter cloacae A9656; assay type: cell-based; conditions: Enterobacter cloacae, A9656, Enterobacter cloacae A9656; overnight 37° C.; read-out: Minimum Inhibitory Concentration (M.I.C.)
From the text: (§1) Representative compounds of the present invention were subjected to in vitro antibiotic screening against a variety of microorganisms.

Str. pyogenes A-9604 = test: MIC, tube dilution, Streptococcus pyogenes A9604; assay type: cell-based; conditions: Streptococcus pyogenes, A9604, Str. pyogenes A9604; overnight 37° C., Nutrient Broth; read-out: Minimum Inhibitory Concentration (M.I.C.)
From the text: as §1

[4] = test system: Hemophilus influenzae A9833; test: MIC, tube dilution, Hemophilus influenzae A9833; assay type: cell-based; conditions: Haemophilus influenzae; Hemophilus influenzae A9833; overnight 37° C.; read-out: Minimum Inhibitory Concentration (M.I.C.)
From the text: as §1

E. coli A-15119 = test: MIC, tube dilution, Escherichia coli A15119; assay type: cell-based; conditions: Escherichia coli, A15119, E. coli A15119; overnight 37° C.; read-out: Minimum Inhibitory Concentration (M.I.C.)
From the text: as §1

Pr. mirabilis A-9900 = test: MIC, tube dilution, Proteus mirabilis A9900; assay type: cell-based; conditions: Proteus mirabilis, A9900, Proteus mirabilis A9900; overnight 37° C.; read-out: Minimum Inhibitory Concentration (M.I.C.)
From the text: as §1

E. coli A-20341-1 = test: MIC, tube dilution, Escherichia coli A20341-1; assay type: cell-based; conditions: Escherichia coli, A203411, E. coli A20341-1; overnight 37° C.; read-out: Minimum Inhibitory Concentration (M.I.C.)
From the text: as §1

K. pneumoniae A-15130 = test: MIC, tube dilution, Klebsiella pneumoniae A15130; assay type: cell-based; conditions: Klebsiella pneumoniae, A15130, K. pneumoniae A15130; overnight 37° C.; read-out: Minimum Inhibitory Concentration (M.I.C.)
From the text: as §1

[5] = test system: Staph. aureus A-9537 and 50% serum; test: MIC, tube dilution, Staph. aureus A9537 + 50% serum; assay type: cell-based, Staphylococcus aureus; conditions: Staphylococcus aureus, overnight 37° C., read-out: Minimum Inhibitory Concentration (M.I.C.)
From the text: as §1

Str. faecalis A-20688 = test: MIC, tube dilution, Streptococcus faecalis A20688; assay type: cell-based; conditions: Enterococcus faecalis, A20688, Str. faecalis A20688; overnight 37° C.; read-out: Minimum Inhibitory Concentration (M.I.C.)
From the text: as §1

Ser. marcescens A-20019 = test: MIC, tube dilution, Serratia marcescens A20019; assay type: cell-based; conditions: Serratia marcescens, A20019, Serratia marcescens A20019; overnight 37° C.; read-out: Minimum Inhibitory Concentration (M.I.C.)
From the text: as §1

[6] = test system: Klebsiella species A20468; test: MIC, tube dilution, Klebsiella species A20468; assay type: cell-based; conditions: Klebsiella species (K. pneumoniae) A20468; overnight 37° C.; read-out: Minimum Inhibitory Concentration (M.I.C.)
From the text: as §1

[7] = test system: Staph. aureus (Pen-Res) A-9606; test: MIC, tube dilution, Staphylococcus aureus A9606 (Pen-Res); assay type: cell-based; conditions: Staphylococcus aureus, Staph. aureus A9606 (Pen-Res); overnight 37° C.; read-out: Minimum Inhibitory Concentration (M.I.C.)
From the text: as §1

Pr. morganii A-15153 = test: MIC, tube dilution, Proteus morganii A15153; assay type: cell-based; conditions: Morganella morganii, A15153, Proteus morganii A15153; overnight 37° C.; read-out: Minimum Inhibitory Concentration (M.I.C.)
From the text: as §1

Ps. aeruginosa A-9843A = test: MIC, tube dilution, Pseudomonas aeruginosa A9843A; assay type: cell-based; conditions: Pseudomonas aeruginosa, A9843A, read-out: Minimum Inhibitory Concentration (M.I.C.), Pseudomonas aeruginosa A9843A; overnight 37° C.
From the text: as §1

Staph. aureus A-9537 = test: MIC, tube dilution, Staphylococcus aureus A9537; assay type: cell-based; conditions: Staphylococcus aureus, A9537, Staph. aureus A9537; overnight 37° C., Nutrient Broth; read-out: Minimum Inhibitory Concentration (M.I.C.)
From the text: as §1

Proteus rettgeri A21203 = test: MIC, tube dilution, Proteus rettgeri A21203; assay type: cell-based; conditions: Providencia rettgeri, A21203, Proteus rettgeri A21203; overnight 37° C.; read-out: Minimum Inhibitory Concentration (M.I.C.)
From the text: as §1

Str. pneumoniae A-9585 = test: MIC, tube dilution, Streptococcus pneumoniae A9585; assay type: cell-based; conditions: Streptococcus pneumoniae, A9585, Str. pneumoniae A9585; overnight 37° C., Nutrient Broth; read-out: Minimum Inhibitory Concentration (M.I.C.)
From the text: as §1

Ent. cloacae A-9659 = test: MIC, tube dilution, Enterobacter cloacae A9659; assay type: cell-based; conditions: Enterobacter cloacae, A9659, Enterobacter cloacae A9659; overnight 37° C.; read-out: Minimum Inhibitory Concentration (M.I.C.)
From the text: as §1

[8] = test system: Staph. aureus (Meth-Res) A-15097; test: MIC, tube dilution, Staphylococcus aureus A15097 (Meth-Res); assay type: cell-based; conditions: Staphylococcus aureus, Staph. aureus A15097 (Meth-Res); overnight 37° C.; read-out: Minimum Inhibitory Concentration (M.I.C.)
From the text: as §1

Ps. aeruginosa A-21213 = test: MIC, tube dilution, Pseudomonas aeruginosa A21213; assay type: cell-based; conditions: Pseudomonas aeruginosa, A21213, Pseudomonas aeruginosa A21213; overnight 37° C.; read-out: Minimum Inhibitory Concentration (M.I.C.)
From the text: as §1

With `CC(=O)OC[C@H]1C(=O)N2C(C(=O)O)=C(CN)S[C@H]12` (relative stereo) [cis 6-Acetoxymethyl-2-aminomethylpenem-3-carboxylic Acid] the stability [1] was “unstable”.
In the case of `O=C(O)[C@H]1/C(=C/CO)O[C@@H]2CC(=O)N21` [clavulanic acid], the “enhancement of activity of penicillins and cephalosporins” value [2] is given as “enhances the in vitro and in vivo activity of some penicillins and cephalosporins”, the β-lactamase inhibition (β-lactamases) is given as “inhibits the action of certain β-lactamases” and the antibacterial activity [3] is given as “low order of antibacterial activity”.
`O=C(O)C1=C(CCCNO)SC2CC(=O)N12` (stereo not drawn) [Example 26] gave an MIC (Ent. cloacae A-9656) of 1 µg/mL (≈ 4.09 µM), an MIC (Str. pyogenes A-9604) of 0.06 µg/mL (≈ 0.246 µM) and an MIC [4] of 125 µg/mL (≈ 512 µM). It also gave an MIC (E. coli A-15119) of 0.5 µg/mL (≈ 2.05 µM), an MIC (Pr. mirabilis A-9900) of 1 µg/mL (≈ 4.09 µM) and an MIC (E. coli A-20341-1) of 63 µg/mL (≈ 258 µM). The MIC (K. pneumoniae A-15130) was 8 µg/mL (≈ 32.8 µM), the MIC [5] was 4 µg/mL and the MIC (Str. faecalis A-20688) was 63 µg/mL (≈ 258 µM). The MIC (Ser. marcescens A-20019) was 1 µg/mL (≈ 4.09 µM), the MIC [6] was over 125 µg/mL and the MIC [7] was 8 µg/mL (≈ 32.8 µM). It also gave an MIC (Pr. morganii A-15153) of 1 µg/mL (≈ 4.09 µM), an MIC (Ps. aeruginosa A-9843A) of 1 µg/mL (≈ 4.09 µM) and an MIC (Staph. aureus A-9537) of 0.13 µg/mL (≈ 0.532 µM). For the same compound, the MIC (Proteus rettgeri A21203) was 2 µg/mL (≈ 8.19 µM), the MIC (Str. pneumoniae A-9585) was 0.016 µg/mL (≈ 0.0655 µM) and the MIC (Ent. cloacae A-9659) was 2 µg/mL (≈ 8.19 µM). It also gave an MIC [8] of 125 µg/mL (≈ 512 µM) and an MIC (Ps. aeruginosa A-21213) of 125 µg/mL (≈ 512 µM).
